Measured values from patent US12486255B2, “Modulators of RAS GTPase” (Tosk, Inc., priority 2018, dated 2025).
Read-outs that look alike come from different tables or passages of the source.

Tests used:
[1] = Pharmacokinetic study in mice; format: in vivo; conditions: ip, 10 mg/kg, CD-1 mice, 10 mg/kg; for Vd/F: CD-1, mouse, read-out: Vz/F
Method: Pharmacokinetic studies were carried out using 10 weeks old CD-1 mice. Structure 2 and Structure 3 were injected ip, 3 mg/kg and 10 mg/kg, respectively, at 8 time points (0, 0.25, 0.5, 1, 2, 4, 8 and 24 hours post-dose). Blood was collected from 3 animals/time point and concentrations of Structure 2 in plasma determined using LC/MS.

[2] = Multi-day safety study in mice; format: in vivo; conditions: female CD1 mice, 10 mg/kg ip daily for 6 days
Method: The multi-day safety study used female, 10 week old, CD1 mice (4/treatment group) dosed with DMSO. Mice were administered 2 mg/kg of Structure 2 or 10 mg/kg Structure 3, ip, daily for 6 days and evaluated for changes clinical chemistry values, hematology values and animal weight as well as signs of health and grooming habits.
Heparinized blood samples were obtained by retro-orbital puncture on Day 6, 12 hours after the last dose of Structure 2. The plasma harvested from the blood was analyzed for standard clinical chemistry parameters (ALB. ALP, ALT, AMY, TBIL, BUN, CA, PHOS, CRE GLU, NA, K, TP & GLOB) and hematology (WBC, LYM, MON, GRA, RBC, HGB, HCT, MCV, MCH, MCHC, RDWc, PLT, PCT, MPV, PDWc) analytes (see definitions herein). Animal weight changes were also monitored. Values for all analytes were analyzed by one way ANOVA plus post-hoc Bonferroni using SPSS (IBM, Armonk, NY).

[3] = tested on: flies expressing G12V in their wing; experiment: Fly assay, wing phenotype reversal; format: in vivo, Drosophila
From the text: Each wing from mutant flies receiving treatment with either water or compound received a score from two independent scorers according to the scheme outlined in the schematic. The analysis of the scores given to the compound group was compared to the scores given for the control (water) group.
Embryo preparation. GAL4 virgin ♀ were collected over a period of 3-5 days, then crossed with kRAS G12V (3M) ♂ inside a plastic condo supplied with grape agar containing yeast paste. Flies were acclimated for 2 days and embryos present after a span of 4-5 hours were collected along with the agar plate and incubated for 24 hours. The next day, embryos were washed off the agar plate with Embryo Wash solution (120 mM NaCl, 0.03% Triton X) and resuspended in Embryo Inoculation solution (120 mM NaCl, 420 mM Sucrose, 0.05% Triton X-100). Embryos were counted and diluted to 15 embryos/10 μL. 150 embryos (100 μL) were dispensed into each vial.
Food-drug admix preparation. Each fly vial contains 1.5 g of fly food in 4 ml water. The quantity of drug needed is calculated for a total of 4 vials, each vial containing 10 μM of Structure 2. This is equivalent to 0.014 mg of Structure 2/vial, for a total of 0.056 mg of Structure 2.
A stock solution of 0.1 mg/mL Structure 2 in ethanol is prepared. A 500-ml round bottom flask is charged with 6 g of fly food (1.5 g×4), to which is added 20 mL of ethanol, ensuring that the food is entirely covered in solvent. To this heterogeneous solution is added an appropriate amount of Structure 2 stock solution, containing the calculated required quantity, in this case 0.56 mL stock solution.
The ethanol is evaporated under reduced pressure via a rotary evaporator equipped with a bump trap. The resulting dry food is added to three vials, each containing 1.5 g, so that the experiment is performed in triplicate. The quantity is calculated initially for 4 vials, because some food will be stuck to the walls of the round bottom flask and some is also invariably lost in the bump trap during the solvent evaporation step. Control vials lacking Structure 2 or Structure 3 are also analyzed and undergo the exact same food preparation and solvent extraction procedure.
Embryo addition to vials. After all the food-drug admix is prepared and added to the respective vials, to each vial is added 4 mL of water and the vial briefly vortexed. To this liquid mixture is added the embryo solution (100 μL), the vials capped and placed in an incubator or fly room.
Wing mounting and scoring. Flies hatch 10-12 days after the above experimental setup is performed. The resulting adult flies are submerged in a 3:1 70% ethanol:glycerol solution for 24 hours, then wings are dissected with curved Vannas spring scissors (FST #15001-08). The wings are mounted in an 80% glycerol solution on a microscope slide under coverslip seal.
Pictures of the wings were taken using an Accu-Scope microscope equipped with a digital camera and connected to a laptop containing the Accu-Scope Micrometric SE Premium software. The wings were scored according to the following scoring tree:
Wing score analysis. After each wing received a score from two independent scorers, the analysis of the scores given to the Structure 2 and 3 groups was compared to the scores given for the control group and was performed using the IBM SPSS software.
Wings that received a score of 3 or above are considered “reversed”, since their phenotype is closer to WT than to kRAS G12V bearing Drosophila. The findings are plotted in FIG. 9. […]

[4] = tested on: phosphorylated ERK 1/2 (T202/Y204); experiment: Phosphorylated ERK bioassay (Western blot, SW480 cells); format: cell-based, human; conditions: 3 μM, 24 hours, in the presence of serum
Method: As described herein, the main downstream target for kRAS is ERK (Samatar et al., Targeting RAS-ERK signaling in cancer: promises and challenges. Nat Rev Drug Discov. 2014; 13:928-42). kRAS activates ERK leading to phosphorylated ERK. A compound that suppresses kRAS activity is expected to lower phosphorylated ERK.
Test articles abrogate the expression of phosphorylated ERK (T202/Y204) SW480 cells were subjected to test article incubation at 3 μM for 24 hours in the presence of serum to mimic natural growth environment. Cells were extracted and total protein of samples normalized through BCA assay. Processed extracts were subjected to SDS-PAGE/Western blot and blotted for phosphorylated ERK 1/2 (T202/Y204); ERK 1/2; and α-Tubulin.
The compound U0126 in FIG. 8 is a MEK inhibitor which is known to suppress phosphorylation of ERK. The compound was tested along with the test articles to serve as a positive control.

c1ccc(-n2cc(CN3CCN(c4ncnc5ccccc45)CC3)cn2)cc1 [Structure 3, 4-(4-((1-phenyl-1H-pyrazol-4-yl)methyl)piperazin-1-yl)quinazoline]
Vd/F ([1]; plasma, plasma): 3.19 L/kg
Vd/F ([1]; plasma, plasma, text statement): > 3 L/kg
mean resident times (MRT) [1]: approximately one to two
AUCINF ([1]; plasma): 4.12 (Microgram * Hour)/mL
AUC_%Extrap ([1]; plasma): 4.92%
AUClast ([1]; plasma): 3.92 (Microgram * Hour)/mL
CI/F ([1]; plasma): 4.04 mL/min/kg
Concentrationmax ([1]; plasma): 3.38 Microgram/mL
Lambda_z ([1]; plasma): 0.76 h⁻¹
MRTINF ([1]; plasma): 1.25 h
MRTlast ([1]; plasma): 1.03 h
Timelast ([1]; plasma): 4.00 h
concentration at 4 Hour ([1]; mouse, plasma, read-out: Concentrationlast): 150 ng/mL
body weight or grooming habits versus dosing vehicle treated animals [2]: no statistically significant difference
clinical chemistry changes versus dosing vehicle treated animals [2]: no significant clinical chemistry changes
ALB ([2]; Day 6): 4.0 ± 0.10 g/dL
ALP ([2]; Day 6): 106.3 ± 21.40 U/L
ALT ([2]; Day 6): 77.3 ± 16.30 U/L
AMY ([2]; Day 6): 932.0 ± 98.90 U/L
BUN ([2]; Day 6): 22.0 ± 5.40 mg/dL
CRE ([2]; Day 6): <0.40 mg/dL
Ca^++ ([2]; Day 6): 9.7 ± 0.10 mg/dL
GLOB ([2]; Day 6): 1.2 ± 0.10 g/dL
GLU ([2]; Day 6): 309.0 ± 45.10 mg/dL
GRA ([2]; Day 6): 0.4 ± 0.20 10^9/l
GRA (%) ([2]; Day 6): 7.0 ± 3.00%
HCT ([2]; Day 6): 43.1 ± 1.80%
HGB ([2]; Day 6): 14.1 ± 0.50 g/dL
K^+ ([2]; Day 6): 4.6 ± 0.20 mmol/L
LYM ([2]; Day 6): 4.6 ± 1.40 10^9/l
LYM (%) ([2]; Day 6): 90.0 ± 4.30%
MCH ([2]; Day 6): 16.0 ± 0.70 pg
MCHC ([2]; Day 6): 32.7 ± 2.50 g/dL
MCV ([2]; Day 6): 49.3 ± 4.30 fL
MON ([2]; Day 6): 0.2 ± 0.20 10^9/l
MON (%) ([2]; Day 6): 3.1 ± 2.00%
MPV ([2]; Day 6): 6.7 ± 0.40 fL
NA^+ ([2]; Day 6): 147.8 ± 2.20 mmol/L
PCT ([2]; Day 6): 0.4 ± 0.10%
PDWc ([2]; Day 6): 30.0 ± 1.50%
PHOS ([2]; Day 6): 9.8 ± 0.40 mg/dL
PLT ([2]; Day 6): 578.8 ± 86.70 10^9/l
RBC ([2]; Day 6): 8.8 ± 0.50 10^12/l
RDWc ([2]; Day 6): 17.4 ± 0.70%
TBIL ([2]; Day 6): 0.4 ± 0.00 mg/dL
TP ([2]; Day 6): 5.2 ± 0.20 g/dL
WBC ([2]; Day 6): 5.2 ± 1.80 10^9/l
wing scores compared to the control group ([3]; Tukey HSD and LSD p<0.001, Mann Whitney p=0.002): significantly different from the control group
Reversal Phenotype (%) ([3]; wings with score of 3 or above, Structure 2 at 10 μmolar, control 8.27): 16%
phosphorylated ERK (T202/Y204) [4]: dramatically decrease phosphorylated ERK
